How the values were obtained:
Assay in all cases: Test F preemergence test
[1] = system: green foxtail; type: in vivo, Setaria viridis; conditions: scale 0 to 100
In short: (§1)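 Greenhouse screen: test chemical in surfactant-containing non-phytotoxic solvent applied preemergence to sown seeds or postemergence to sugarcane plants; after 14 to 21 days each species scored visually versus controls.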

[2] = system: mustard; type: in vivo, Brassica nigra; conditions: scale 0 to 100
In short: as §1

[3] = system: guineagrass; type: in vivo, Panicum maximum; conditions: scale 0 to 100
In short: as §1

[4] = system: dallisgrass; type: in vivo, Paspalum dilatatum; conditions: scale 0 to 100
In short: as §1

[5] = system: barnyardgrass; type: in vivo, Echinochloa crus-galli
In short: as §1

[6] = system: southern sandbur; type: in vivo, Cenchrus echinatus; conditions: scale 0 to 100
In short: as §1

[7] = system: prickly sida; type: in vivo, Sida spinosa; conditions: scale 0 to 100
In short: as §1

[8] = system: common purslane; type: in vivo, Portulaca oleracea; conditions: scale 0 to 100
In short: as §1

[9] = system: common groundsel; type: in vivo, Senecio vulgaris; conditions: scale 0 to 100
In short: as §1

[10] = system: itchgrass; type: in vivo, Rottboellia cochinchinensis; conditions: scale 0 to 100
In short: as §1

[11] = system: quackgrass; type: in vivo, Elytrigia repens; conditions: scale 0 to 100
In short: as §1

[12] = system: field bindweed; type: in vivo, Convolvulus arvensis; conditions: scale 0 to 100
In short: as §1

[13] = system: common mallow; type: in vivo, Malva sylvestris; conditions: scale 0 to 100
In short: as §1

[14] = 62 g ai/ha, Preemergence, scale 0 to 100
[15] = 125 g ai/ha, preemergence, scale 0 to 100
[16] = Preemergence, 31 g ai/ha, scale 0 to 100

Cc1cc[n+]([O-])c(S(=O)(=O)Cc2c(C(F)(F)F)nn(C)c2OCC(F)(F)F)c1 [Compound 31]
Plant response rating, Foxtail, Green ([1]; 16 g ai/ha, preemergence): 60 | Foxtail, Green plant response rating ([1]; 62 g ai/ha, Preemergence): 100 | Foxtail, Green plant response rating ([1]; 125 g ai/ha, preemergence): 100 | Plant response rating, Foxtail, Green ([1]; Preemergence, 31 g ai/ha): 95 | Plant response rating, Black Mustard ([2]; 16 g ai/ha, preemergence): 40 | Black Mustard plant response rating ([2]; 62 g ai/ha, Preemergence): 100 | Black Mustard plant response rating ([2]; 125 g ai/ha, preemergence): 100 | Plant response rating, Black Mustard ([2]; Preemergence, 31 g ai/ha): 95 | Plant response rating, Guineagrass ([3]; 16 g ai/ha, preemergence): 80 | Guineagrass plant response rating ([3]; 62 g ai/ha, Preemergence): 100 | Guineagrass plant response rating ([3]; 125 g ai/ha, preemergence): 100 | Plant response rating, Guineagrass ([3]; Preemergence, 31 g ai/ha): 100 | Plant response rating, Dallisgrass ([4]; 16 g ai/ha, preemergence): 35 | Dallisgrass plant response rating ([4]; 62 g ai/ha, Preemergence): 95 | Dallisgrass plant response rating ([4]; 125 g ai/ha, preemergence): 100 | Plant response rating, Dallisgrass ([4]; Preemergence, 31 g ai/ha): 60 | Plant response rating, Barnyardgrass ([5]; 16 g ai/ha, preemergence, scale 0 to 100 (0 no effect, 100 complete control)): 50 | Barnyardgrass plant response rating [5, 14]: 100 | Barnyardgrass plant response rating [5, 15]: 100 | Plant response rating, Barnyardgrass [5, 16]: 95 | Plant response rating, Sandbur ([6]; 16 g ai/ha, preemergence): 40 | Sandbur plant response rating ([6]; 125 g ai/ha, preemergence): 100 | Plant response rating, Sandbur ([6]; Preemergence, 62 g ai/ha): 100 | Plant response rating, Sandbur ([6]; Preemergence, 31 g ai/ha): 90 | Plant response rating, Prickly Sida ([7]; 16 g ai/ha, preemergence): 40 | Prickly Sida plant response rating ([7]; 62 g ai/ha, Preemergence): 80 | Prickly Sida plant response rating ([7]; 125 g ai/ha, preemergence): 100 | Plant response rating, Prickly Sida ([7]; Preemergence, 31 g ai/ha): 75 | Plant response rating, Purslane ([8]; 16 g ai/ha, preemergence): 25 | Purslane plant response rating ([8]; 62 g ai/ha, Preemergence): 40 | Purslane plant response rating ([8]; 125 g ai/ha, preemergence): 65 | Groundsel plant response rating ([9]; 125 g ai/ha, preemergence): 100 | Plant response rating, Itchgrass ([10]; 16 g ai/ha, preemergence): 10 | Itchgrass plant response rating ([10]; 62 g ai/ha, Preemergence): 60 | Itchgrass plant response rating ([10]; 125 g ai/ha, preemergence): 80 | Plant response rating, Itchgrass ([10]; Preemergence, 31 g ai/ha): 25 | Plant response rating, Quackgrass ([11]; 16 g ai/ha, preemergence): 15 | Quackgrass plant response rating ([11]; 62 g ai/ha, Preemergence): 75 | Quackgrass plant response rating ([11]; 125 g ai/ha, preemergence): 95 | Plant response rating, Quackgrass ([11]; Preemergence, 31 g ai/ha): 65 | Plant response rating, Field Bindweed ([12]; 16 g ai/ha, preemergence): 0 | Field Bindweed plant response rating ([12]; 62 g ai/ha, Preemergence): 40 | Field Bindweed plant response rating ([12]; 125 g ai/ha, preemergence): 70 | Plant response rating, Field Bindweed ([12]; Preemergence, 31 g ai/ha): 0 | Plant response rating, Mallow ([13]; 16 g ai/ha, preemergence): 0 | Mallow plant response rating ([13]; 62 g ai/ha, Preemergence): 100 | Mallow plant response rating ([13]; 125 g ai/ha, preemergence): 100 | Plant response rating, Mallow ([13]; Preemergence, 31 g ai/ha): 100

Cn1nc(C(F)(F)F)c(C[S+]([O-])c2cccc[n+]2[O-])c1OCC(F)(F)F (racemic) [Compound 28]
Foxtail, Green plant response rating ([1]; 62 g ai/ha, Preemergence): 100 | Foxtail, Green plant response rating ([1]; 125 g ai/ha, preemergence): 100 | Plant response rating, Foxtail, Green ([1]; Preemergence, 16 g ai/ha): 30 | Plant response rating, Foxtail, Green ([1]; Preemergence, 31 g ai/ha): 80 | Black Mustard plant response rating ([2]; 62 g ai/ha, Preemergence): 100 | Black Mustard plant response rating ([2]; 125 g ai/ha, preemergence): 100 | Plant response rating, Black Mustard ([2]; Preemergence, 16 g ai/ha): 80 | Plant response rating, Black Mustard ([2]; Preemergence, 31 g ai/ha): 100 | Guineagrass plant response rating ([3]; 62 g ai/ha, Preemergence): 100 | Guineagrass plant response rating ([3]; 125 g ai/ha, preemergence): 100 | Plant response rating, Guineagrass ([3]; Preemergence, 16 g ai/ha): 75 | Plant response rating, Guineagrass ([3]; Preemergence, 31 g ai/ha): 100 | Dallisgrass plant response rating ([4]; 62 g ai/ha, Preemergence): 100 | Dallisgrass plant response rating ([4]; 125 g ai/ha, preemergence): 100 | Plant response rating, Dallisgrass ([4]; Preemergence, 16 g ai/ha): 0 | Plant response rating, Dallisgrass ([4]; Preemergence, 31 g ai/ha): 40 | Barnyardgrass plant response rating [5, 14]: 100 | Barnyardgrass plant response rating [5, 15]: 100 | Plant response rating, Barnyardgrass ([5]; Preemergence, 16 g ai/ha, scale 0 to 100): 75 | Plant response rating, Barnyardgrass [5, 16]: 100 | Sandbur plant response rating ([6]; 62 g ai/ha, Preemergence): 100 | Sandbur plant response rating ([6]; 125 g ai/ha, preemergence): 100 | Plant response rating, Sandbur ([6]; Preemergence, 31 g ai/ha): 90 | Prickly Sida plant response rating ([7]; 62 g ai/ha, Preemergence): 100 | Prickly Sida plant response rating ([7]; 125 g ai/ha, preemergence): 100 | Plant response rating, Prickly Sida ([7]; Preemergence, 16 g ai/ha): 15 | Plant response rating, Prickly Sida ([7]; Preemergence, 31 g ai/ha): 90 | Purslane plant response rating ([8]; 62 g ai/ha, Preemergence): 100 | Purslane plant response rating ([8]; 125 g ai/ha, preemergence): 100 | Plant response rating, Purslane ([8]; Preemergence, 16 g ai/ha): 0 | Plant response rating, Purslane ([8]; Preemergence, 31 g ai/ha): 60 | Groundsel plant response rating ([9]; 62 g ai/ha, Preemergence): 100 | Groundsel plant response rating ([9]; 125 g ai/ha, preemergence): 100 | Plant response rating, Groundsel ([9]; Preemergence, 16 g ai/ha): 90 | Plant response rating, Groundsel ([9]; Preemergence, 31 g ai/ha): 100 | Itchgrass plant response rating ([10]; 62 g ai/ha, Preemergence): 95 | Itchgrass plant response rating ([10]; 125 g ai/ha, preemergence): 100 | Plant response rating, Itchgrass ([10]; Preemergence, 16 g ai/ha): 20 | Plant response rating, Itchgrass ([10]; Preemergence, 31 g ai/ha): 35 | Quackgrass plant response rating ([11]; 62 g ai/ha, Preemergence): 90 | Quackgrass plant response rating ([11]; 125 g ai/ha, preemergence): 95 | Plant response rating, Quackgrass ([11]; Preemergence, 16 g ai/ha): 0 | Plant response rating, Quackgrass ([11]; Preemergence, 31 g ai/ha): 50 | Field Bindweed plant response rating ([12]; 62 g ai/ha, Preemergence): 80 | Field Bindweed plant response rating ([12]; 125 g ai/ha, preemergence): 90 | Plant response rating, Field Bindweed ([12]; Preemergence, 16 g ai/ha): 60 | Plant response rating, Field Bindweed ([12]; Preemergence, 31 g ai/ha): 70 | Mallow plant response rating ([13]; 62 g ai/ha, Preemergence): 100 | Mallow plant response rating ([13]; 125 g ai/ha, preemergence): 100 | Plant response rating, Mallow ([13]; Preemergence, 16 g ai/ha): 0 | Plant response rating, Mallow ([13]; Preemergence, 31 g ai/ha): 100
